From US11229664B2, “Treatment of myelosuppression” (priority 2012, dated 2022)
Where “and” joins values, the source holds several entries; their conditions need not be identical. Equal values may be shown once.

What was measured:
[1] = system: Human ovarian cancer cell line A2780; assay: A2780 human ovarian cancer xenograft model: tumor weight; type: in vivo, athymic female mice; parameters: key to Mouse status printed in place of tumor weight: FD = Found Dead; TS = Terminal Sacrifice; conditions: for Tumor weight, individual mice: listed as PGX ODSH; for Mouse status printed in place of tumor weight: Groups 2 and 3
Method: ODSH (50 mg/mL stock concentration) was made by Pyramid Laboratories, Inc. and stored at room temperature until use. As described further below, ODSH was administered either intravenously (IV), at a dose of 48 mg/kg and volume of 10 mL/kg, or subcutaneously (SC) at a dose of 24 mg/kg and volume of 5 ml/kg. Carboplatin obtained from a clinical supplier was stored at 4° C. until use. Carboplatin was administered by intraperitoneal injection (IP) at a dose of 80 mg/kg and volume of 10 mL/kg. Saline solution (0.9% NaCl) was used as a vehicle control for ODSH and administered by the same routes and in the same volumes as ODSH.
Human ovarian cancer cell line A2780 was used in the murine xenograft experiments as follows. Approximately 5×10^6 A2780 cells were used per mouse, injected subcutaneously into the right flank in 0.1 mL of 50% Matrigel/50% media. The study was initiated when tumors reached a size of 90-130 mg. 40 mice were used, 10 per treatment regimen. The mice were normal athymic female mice, aged 6-7 weeks, housed in microisolator cages and maintained under pathogen-free conditions. Tumor and body weights were measured three times per week.
Four treatment groups were studied.

neutrophils = assay: Clinical trial, metastatic pancreatic cancer: absolute neutrophil count / neutropenia grade; type: in vivo, human; parameters: Neutrophil count: unit not given here; conditions: for Neutrophil Values / Neutrophil count: individual patients; for Neutrophil Values: ODSH adjunctive to gemcitabine and nab-paclitaxel; for Neutrophil count: randomized stage
Excerpt: Male and non-pregnant, non-lactating, female patients, aged 18 to 75, with histologically confirmed metastatic adenocarcinoma of the pancreas were enrolled in the trial. […] Treatment consisted of a series of 28-day cycles, wherein the last day of one cycle (e.g., day 28, cycle 1) was immediately followed by the first day of the next cycle (e.g., day 1, cycle 2). […] Nab-paclitaxel and gemcitabine therapy was given as described in the prescribing information for Abraxane® and Gemzar®. See also, Von Hoff et al., 2011, J. […] As a substantially non-anticoagulant heparinoid, ODSH can be administered at a dose that is greater than the fully anticoagulant dose of unfractionated heparin, without concern for anticoagulant effect, as shown in the Results below. An initial run-in period was conducted in which ten patients were treated with the gemcitabine, nab-paclitaxel, and ODSH regimen described above. After all ten patients had completed at least one 28-day cycle, the data were reviewed and an open-label randomized study initiated, with two arms (ODSH arm and Control arm). In the ODSH arm, the dosing regimen was the same as in the run-in period (gemcitabine, nab-paclitaxel, and ODSH). In the Control arm, patients were given the same gemcitabine and nab-paclitaxel regimen as in the run-in period, but without ODSH. […] Platelet counts, total white blood cell counts, and absolute neutrophil counts were performed. Grading of thrombocytopenia and/or neutropenia was performed according to the following standards: [table]

anti-thrombin III = anti-thrombin III (Homo sapiens, UniProt P01008); conditions: cited from earlier work
[2] = ODSH adjunct to gemcitabine/nab-paclitaxel

anti-thrombin III, sequence (P01008 33-464, species assumed): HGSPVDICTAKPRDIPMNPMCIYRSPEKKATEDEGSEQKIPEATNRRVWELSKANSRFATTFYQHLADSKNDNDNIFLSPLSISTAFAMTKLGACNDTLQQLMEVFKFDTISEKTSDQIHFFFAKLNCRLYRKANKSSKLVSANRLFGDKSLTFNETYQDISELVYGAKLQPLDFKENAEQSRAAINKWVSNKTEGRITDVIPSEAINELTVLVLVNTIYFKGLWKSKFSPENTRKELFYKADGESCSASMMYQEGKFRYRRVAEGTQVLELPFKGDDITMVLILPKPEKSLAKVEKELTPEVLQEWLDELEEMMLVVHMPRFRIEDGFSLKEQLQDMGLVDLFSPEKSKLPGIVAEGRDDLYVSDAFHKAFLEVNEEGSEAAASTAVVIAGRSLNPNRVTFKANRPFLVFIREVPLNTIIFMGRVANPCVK

## substantially 2-O, 3-O desulfated heparin [ODSH]
[1]; Day 1
  Tumor weight, Mean: 107.0 mg
  Tumor weight, Median: 105.5 mg
[1]; Day 1, Mouse 1-10
  Tumor weight, individual mice: 104 mg (2×) and 107 mg and 109 mg and 112 mg and 120 mg and 126 mg and 90 mg and 96 mg and 101 mg
[1]; Day 4
  Tumor weight, Mean: 146.8 mg
  Tumor weight, Median: 134.2 mg
[1]; Day 4, Mouse 1-10
  Tumor weight, individual mice: 159 mg and 111 mg and 195 mg and 131 mg and 173 mg and 124 mg and 200 mg and 121 mg and 117 mg and 138 mg
[1]; Day 6
  Tumor weight, Mean: 240.3 mg
  Tumor weight, Median: 238.2 mg
[1]; Day 6, Mouse 1-10
  Tumor weight, individual mice: 309 mg and 215 mg and 347 mg and 264 mg and 235 mg and 139 mg and 282 mg and 241 mg and 171 mg and 201 mg
[1]; Day 8
  Tumor weight, Mean: 382.2 mg
  Tumor weight, Median: 392.0 mg
[1]; Day 8, Mouse 1-10
  Tumor weight, individual mice: 449 mg and 321 mg and 639 mg and 413 mg and 411 mg and 183 mg and 422 mg and 373 mg and 315 mg and 296 mg
[1]; Day 11
  Tumor weight, Mean: 609.6 mg
  Tumor weight, Median: 585.4 mg
[1]; Day 11, Mouse 1-10
  Tumor weight, individual mice: 816 mg and 366 mg and 910 mg and 653 mg and 536 mg and 349 mg and 811 mg and 635 mg and 491 mg and 529 mg
[1]; Day 14
  Tumor weight, Mean: 984.4 mg
  Tumor weight, Median: 949.7 mg
[1]; Day 14, Mouse 1-10
  Tumor weight, individual mice: 1,303 mg and 670 mg and 1,499 mg and 1,032 mg and 868 mg and 559 mg and 1,253 mg and 1,084 mg and 815 mg and 762 mg
[1]; Day 18
  Tumor weight, Mean: 1,501.7 mg
  Tumor weight, Median: 1,591.5 mg
[1]; Day 18, Mouse 1-10
  Tumor weight, individual mice: 1,796 mg and 1,150 mg and 1,836 mg and 1,568 mg and 1,714 mg and 891 mg and 1,869 mg and 1,615 mg and 1,157 mg and 1,422 mg
[1]; Day 21
  Tumor weight, Mean: 2,072.6 mg
  Tumor weight, Median: 1952.5 mg
[1]; Day 21, Mouse 1-10
  Tumor weight, individual mice: 2,692 mg and 1,467 mg and 2,639 mg and 1,852 mg and 1,880 mg and 1,289 mg and 2,560 mg and 2,642 mg and 1,681 mg and 2,025 mg
[1]; Day 25
  Tumor weight, Mean: 2,343.5 mg
  Tumor weight, Median: 2,422.8 mg
[1]; Day 25, Mouse 1-10
  Tumor weight, individual mice: 2,414 mg and 2,464 mg and 2,599 mg and 1,817 mg and 2,423 mg
[1]; Day 25, individual mice
  Mouse status printed in place of tumor weight: TS
[1]; Day 28
  Tumor weight, Mean: 3,349.0 mg
  Tumor weight, Median: 3,251.6 mg
[1]; Day 28, Mouse 1-10
  Tumor weight, individual mice: 3,909 mg and 3,784 mg and 3,252 mg and 2,671 mg and 3,129 mg
[1]; Day 28, individual mice
  Mouse status printed in place of tumor weight: TS
neutrophils; [2]
  Patients with increased or unchanged neutrophil counts on first day of second cycle vs first day of first cycle: Five out of 10
  Patients with normal neutrophil counts at the start of the fourth cycle: 10 out of 10
  Patients with normal neutrophil counts at the start of the third cycle: 8 out of 9
  Patients with normal neutrophil counts on the first day of the second treatment cycle: Eight out of 10
neutrophils; all samples (FIG. 10B), ODSH adjunct to gemcitabine/nab-paclitaxel
  Mean and median absolute neutrophil counts on the first day of treatment cycles 2 and 3: above 2,000
neutrophils; day 15, first cycle, ODSH adjunct to gemcitabine/nab-paclitaxel
  Patients with no more than mild neutropenia after two doses of treatment: 44%
neutrophils; day 15 of cycle 2 or day 15 of cycle 3, ODSH adjunct to gemcitabine/nab-paclitaxel
  Patients with no more than mild neutropenia after five or eight doses of treatment: 7 out of 10
neutrophils; Cycle 1 Day 1 (before treatment)
  Neutrophil Values: 4.3 ×10^3/μl blood (2×) and 3.6 ×10^3/μl blood (2×) and 5.5 ×10^3/μl blood and 2.1 ×10^3/μl blood and 3.3 ×10^3/μl blood
neutrophils; Cycle 1 Day 8
  Neutrophil Values: 1.3 ×10^3/μl blood and 2.1 ×10^3/μl blood and 4.3 ×10^3/μl blood and 0.5 ×10^3/μl blood and 3.0 ×10^3/μl blood and 1.5 ×10^3/μl blood
neutrophils; Cycle 1 Day 15
  Neutrophil Values: 0.7 ×10^3/μl blood (2×) and 1.6 ×10^3/μl blood and 3.6 ×10^3/μl blood and 3.5 ×10^3/μl blood and 1.0 ×10^3/μl blood
  Neutrophil count: 2.4 and 1.4 and 4.0 (2×) and 0.8 and 4.7 and 3.0 and 0.3
neutrophils; Cycle 2 Day 1
  Neutrophil Values: 7.3 ×10^3/μl blood and 1.6 ×10^3/μl blood and 4.6 ×10^3/μl blood and 13.0 ×10^3/μl blood and 2.1 ×10^3/μl blood and 6.0 ×10^3/μl blood and 3.6 ×10^3/μl blood
neutrophils; Cycle 2 Day 8
  Neutrophil Values: 3.8 ×10^3/μl blood and 2.6 ×10^3/μl blood and 3.7 ×10^3/μl blood (2×) and 6.3 ×10^3/μl blood and 1.3 ×10^3/μl blood and 1.9 ×10^3/μl blood
neutrophils; Cycle 2 Day 15
  Neutrophil Values: 1.8 ×10^3/μl blood and 1.7 ×10^3/μl blood and 3.8 ×10^3/μl blood and 0.7 ×10^3/μl blood and 1.5 ×10^3/μl blood and 1.1 ×10^3/μl blood and 1.0 ×10^3/μl blood
  Neutrophil count: 1.8 (2×) and 1.6 and 0.8 and 3.7 (2×)
neutrophils; Cycle 3 Day 1
  Neutrophil Values: 2.7 ×10^3/μl blood and 2.8 ×10^3/μl blood and 2.2 ×10^3/μl blood and 3.9 ×10^3/μl blood and 1.8 ×10^3/μl blood and 3.2 ×10^3/μl blood
neutrophils; Cycle 3 Day 8
  Neutrophil Values: 1.6 ×10^3/μl blood and 4.2 ×10^3/μl blood and 6.8 ×10^3/μl blood and 3.9 ×10^3/μl blood and 1.4 ×10^3/μl blood (2×)
neutrophils; Cycle 3 Day 15
  Neutrophil Values: 1.5 ×10^3/μl blood (2×) and 1.8 ×10^3/μl blood and 4.5 ×10^3/μl blood and 1.4 ×10^3/μl blood and 0.8 ×10^3/μl blood and 2.6 ×10^3/μl blood
  Neutrophil count: 1.0 and 1.6 and 0.8 and 5.4
neutrophils; Cycle 4 Day 1
  Neutrophil Values: 2.2 ×10^3/μl blood and 5.2 ×10^3/μl blood and 5.7 ×10^3/μl blood and 5.9 ×10^3/μl blood and 3.5 ×10^3/μl blood and 3.2 ×10^3/μl blood and 2.7 ×10^3/μl blood
neutrophils; Cycle 4 Day 8
  Neutrophil Values: 2.5 ×10^3/μl blood and 2.7 ×10^3/μl blood and 2.2 ×10^3/μl blood and 2.0 ×10^3/μl blood and 1.4 ×10^3/μl blood
neutrophils; Cycle 4 Day 15
  Neutrophil Values: 4.6 ×10^3/μl blood and 2.4 ×10^3/μl blood and 3.4 ×10^3/μl blood and 0.7 ×10^3/μl blood and 1.7 ×10^3/μl blood
  Neutrophil count: 4.8 and 4.1
neutrophils; Cycle 5 Day 1
  Neutrophil Values: 1.6 ×10^3/μl blood and 3.2 ×10^3/μl blood and 3.3 ×10^3/μl blood and 23.2 ×10^3/μl blood
neutrophils; Cycle 5 Day 8
  Neutrophil Values: 2.1 ×10^3/μl blood and 3.4 ×10^3/μl blood and 1.6 ×10^3/μl blood and 4.1 ×10^3/μl blood
neutrophils; Cycle 5 Day 15
  Neutrophil Values: 0.8 ×10^3/μl blood and 3.9 ×10^3/μl blood and 1.1 ×10^3/μl blood
neutrophils; Cycle 6 Day 1
  Neutrophil Values: 13.5 ×10^3/μl blood and 2.3 ×10^3/μl blood
neutrophils; Cycle 6 Day 8
  Neutrophil Values: 1.3 ×10^3/μl blood and 1.2 ×10^3/μl blood
neutrophils; Cycle 6 Day 15
  Neutrophil Values: 1.7 ×10^3/μl blood and 10.7 ×10^3/μl blood
neutrophils; Screen
  Neutrophil Values: 5.6 ×10^3/μl blood and 5.9 ×10^3/μl blood and 4.0 ×10^3/μl blood (2×) and 5.3 ×10^3/μl blood and 4.3 ×10^3/μl blood and 9.3 ×10^3/μl blood
anti-thrombin III
  Kd, affinity for anti-thrombin III: ~4000 µg/mL
anti-thrombin III; read-out: Kd, affinity for anti-thrombin III
  Kd: ~339 µM
